These results are taken from patent US9493430B2, “Biaryl- or heterocyclic biaryl-substituted cyclohexene derivative compounds as CETP inhibitors” (CHONG KUN DANG PHARMACEUTICAL CORP., priority 2013, dated 2016).

This experiment has as its target CETP (Homo sapiens (Human), UniProt P11597). In words: Test for inhibition of cholesteryl ester transfer (in vitro). Format: biochemical. Conditions: human plasma as CETP source, LDL from healthy persons as acceptor, rHDL-agarose donor, 37° C. The text has this:
Test for Inhibition of Cholesteryl Ester Transfer (In Vitro)
1. Construction of Cholesteryl Ester Donor
To construct a cholesteryl ester donor to be used in the test, radiolabeled recombinant HDL containing […] (GE healthcare, TRK886, 3.5 μCi/mg of apoA-1) and apoA-1 was synthesized. Then, rHDL-agarose having the recombinant HDL immobilized thereon by CNBr-activated Sepharose 4B (Amersham Biosciences, Sweden) resin was used in the test.
2. Cholesteryl Ester Transfer Test
As a protein source for cholesteryl ester transfer, plasma from healthy persons was used, and as a cholesteryl ester receptor, LDL from healthy persons was used. Samples were treated with each test compound to final concentrations of 16, 80, 400, 2000 and 10000 nM and analyzed in duplicate. For the cholesteryl ester transfer test, 20 μl of plasma, 50 μl of LDL (0.25 mg/ml) and 50 μl of rHDL-agarose (0.25 mg/ml) were added, and a solution containing a test compound was added, followed by reaction at 37° C. Then, centrifugation was performed at 4° C. for 3 minutes to stop the reaction, and 150 μl of the supernatant was taken and transferred to a 96-well plate for radioactivity measurement, and the radioactivity of the plate was measured with a beta-ray detector.
3. Statistical Processing
The ratio of [^3H]-cholesteryl oleate from HDL to LDL was calculated and used as a result value, and from the result value, IC50 value was calculated using GraphPad Prism 5.0.

Each structure is given as a SMILES string.

Sequence of CETP (P11597 18-493): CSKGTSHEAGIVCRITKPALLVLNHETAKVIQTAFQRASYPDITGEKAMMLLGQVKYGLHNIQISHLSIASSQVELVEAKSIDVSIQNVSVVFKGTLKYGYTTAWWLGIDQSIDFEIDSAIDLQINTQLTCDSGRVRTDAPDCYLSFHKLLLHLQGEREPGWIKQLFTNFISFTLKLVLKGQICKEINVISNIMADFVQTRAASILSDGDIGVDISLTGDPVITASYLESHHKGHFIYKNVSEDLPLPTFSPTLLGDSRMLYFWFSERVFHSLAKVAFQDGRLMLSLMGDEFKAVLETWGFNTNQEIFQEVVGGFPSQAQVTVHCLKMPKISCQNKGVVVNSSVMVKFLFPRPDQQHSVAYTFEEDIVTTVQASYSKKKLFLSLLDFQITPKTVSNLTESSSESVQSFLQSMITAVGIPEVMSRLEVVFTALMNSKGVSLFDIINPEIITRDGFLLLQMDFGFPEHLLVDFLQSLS

In general, IC50 refers to the concentration at which inhibition is half-maximal. The molecule `COc1ccc(-c2ccc(C(=O)O)cc2OC)cc1C1=C(CN2C(=O)O[C@H](c3cc(C(F)(F)F)cc(C(F)(F)F)c3)[C@@H]2C)CC(C)(C)CC1` [Compound 597, 3′-(2-(((4S,5R)-5-(3,5-bis(trifluoromethyl)phenyl)-4-methyl-2-oxooxazolidin-3-yl)methyl)-4,4-dimethylcyclohex-1-enyl)-2,4′-dimethoxybiphenyl-4-carboxylic acid] yielded a half-maximal inhibitory concentration (IC50) of 50.2 nM.

With `COc1ccc(-c2ccc(C(=O)O)cc2C(F)(F)F)nc1C1=C(CN2C(=O)O[C@H](c3cc(C(F)(F)F)cc(C(F)(F)F)c3)[C@@H]2C)CC(C)(C)CC1` [Compound 764, 4-(2-(2-(((4S,5R)-5-(3,5-bis(trifluoromethyl)phenyl)-4-methyl-2-oxooxazolidin-3-yl)methyl)-4,4-dimethylcyclohex-1-enyl)-3-methoxypyridin-6-yl)-3-(trifluoromethyl)benzoic acid], the IC50 turned out to be 8.9 nM.

Take `COc1cc(C(F)(F)F)c(-c2ccc(C(=O)O)cc2C)cc1C1=C(CN2C(=O)O[C@H](c3cc(C(F)(F)F)cc(C(F)(F)F)c3)[C@@H]2C)CC(C)(C)CC1` [Compound 616, 5′-(2-(((4S,5R)-5-(3,5-bis(trifluoromethyl)phenyl)-4-methyl-2-oxooxazolidin-3-yl)methyl)-4,4-dimethylcyclohex-1-enyl)-4′-methoxy-2-methyl-2′-(trifluoromethyl)biphenyl-4-carboxylic acid]: the half-maximal inhibitory concentration (IC50) was 7.6 nM.

`C[C@H]1[C@@H](c2cc(C(F)(F)F)cc(C(F)(F)F)c2)OC(=O)N1CC1=C(c2ccc(F)c(-c3ccc(C(=O)O)cc3C(F)(F)F)c2)CCC(C)(C)C1` [Compound 723, 5′-(2-(((4S,5R)-5-(3,5-bis(trifluoromethyl)phenyl)-4-methyl-2-oxooxazolidin-3-yl)methyl)-4,4-dimethylcyclohex-1-enyl)-2′-fluoro-2-(trifluoromethyl)biphenyl-4-carboxylic acid]: half-maximal inhibition (IC50) was put at 9.6 nM.

`COc1ccc(-c2ccc(C(=O)O)cc2F)cc1C1=C(CN2C(=O)O[C@H](c3cc(C(F)(F)F)cc(C(F)(F)F)c3)[C@@H]2C)CC(C)(C)CC1` [Compound 561, 3′-(2-(((4S,5R)-5-(3,5-bis(trifluoromethyl)phenyl)-4-methyl-2-oxooxazolidin-3-yl)methyl)-4,4-dimethylcyclohex-1-enyl)-2-fluoro-4′-methoxybiphenyl-4-carboxylic acid] came in with an IC50 of 23.2 nM.

The molecule `C[C@H]1[C@@H](c2cc(C(F)(F)F)cc(C(F)(F)F)c2)OC(=O)N1CC1=C(c2cc(-c3ccc(C(=O)O)cc3F)cc(C(F)(F)F)c2)CCC(C)(C)C1` [Compound 748, 3′-(2-(((4S,5R)-5-(3,5-bis(trifluoromethyl)phenyl)-4-methyl-2-oxooxazolidin-3-yl)methyl)-4,4-dimethylcyclohex-1-enyl)-2-fluoro-5′-(trifluoromethyl)biphenyl-4-carboxylic acid] displayed a concentration for half-maximal inhibition (IC50) of 15.9 nM.

Molecule `C[C@H]1[C@@H](c2cc(C(F)(F)F)cc(C(F)(F)F)c2)OC(=O)N1CC1=C(c2cc(-c3ccc(C(=O)O)cc3C(F)(F)F)ccc2Cl)CCC(C)(C)C1` [Compound 729, 3′-(2-(((4S,5R)-5-(3,5-bis(trifluoromethyl)phenyl)-4-methyl-2-oxooxazolidin-3-yl)methyl)-4,4-dimethylcyclohex-1-enyl)-4′-chloro-2-(trifluoromethyl)biphenyl-4-carboxylic acid] returned a 50% inhibitory concentration (IC50) of 7.5 nM.

`C[C@H]1[C@@H](c2cc(C(F)(F)F)cc(C(F)(F)F)c2)OC(=O)N1CC1=C(c2cc(-c3ccc(C(=O)O)cc3Cl)ccc2F)CCC(C)(C)C1` [Compound 739, 3′-(2-(((4S,5R)-5-(3,5-bis(trifluoromethyl)phenyl)-4-methyl-2-oxooxazolidin-3-yl)methyl)-4,4-dimethylcyclohex-1-enyl)-2-chloro-4′-fluorobiphenyl-4-carboxylic acid] returned a half-maximal inhibitory concentration (IC50) of 20.3 nM.

Regarding `COC(=O)c1ccc(-c2cnc(OC)c(C3=C(CN4C(=O)O[C@H](c5cc(C(F)(F)F)cc(C(F)(F)F)c5)[C@@H]4C)CC(C)(C)CC3)c2)c(C)c1` [Compound 555, methyl 4-(3-(2-(((4S,5R)-5-(3,5-bis(trifluoromethyl)phenyl)-4-methyl-2-oxooxazolidin-3-yl)methyl)-4,4-dimethylcyclohex-1-enyl)-2-methoxypyridin-5-yl)-3-methylbenzoate], the midpoint of inhibition, the IC50, lay at 28.4 nM.

In turn, `Cc1cc(C(=O)O)ccc1-c1ccc(Cl)c(C2=C(CN3C(=O)O[C@H](c4cc(C(F)(F)F)cc(C(F)(F)F)c4)[C@@H]3C)CC(C)(C)CC2)c1` [Compound 727, 3′-(2-(((4S,5R)-5-(3,5-bis(trifluoromethyl)phenyl)-4-methyl-2-oxooxazolidin-3-yl)methyl)-4,4-dimethylcyclohex-1-enyl)-4′-chloro-2-methylbiphenyl-4-carboxylic acid] came in with an IC50 of 11.4 nM.

For the molecule `COc1cc(C(F)(F)F)c(-c2ccc(C(=O)O)cc2)cc1C1=C(CN2C(=O)O[C@H](c3cc(C(F)(F)F)cc(C(F)(F)F)c3)[C@@H]2C)CC(C)(C)CC1` [Compound 612, 5′-(2-(((4S,5R)-5-(3,5-bis(trifluoromethyl)phenyl)-4-methyl-2-oxooxazolidin-3-yl)methyl)-4,4-dimethylcyclohex-1-enyl)-4′-methoxy-2′-(trifluoromethyl)biphenyl-4-carboxylic acid], the IC50 stood at 6.9 nM.

`COc1ncc(-c2ccc(C(=O)O)cc2C(C)C)cc1C1=C(CN2C(=O)O[C@H](c3cc(C(F)(F)F)cc(C(F)(F)F)c3)[C@@H]2C)CC(C)(C)CC1` [Compound 578, 4-(3-(2-(((4S,5R)-5-(3,5-bis(trifluoromethyl)phenyl)-4-methyl-2-oxooxazolidin-3-yl)methyl)-4,4-dimethylcyclohex-1-enyl)-2-methoxypyridin-5-yl)-3-isopropylbenzoic acid] gave an IC50 of 12.6 nM.

`COc1cc(C)c(-c2ccc(C(=O)O)cc2)cc1C1=C(CN2C(=O)O[C@H](c3cc(C(F)(F)F)cc(C(F)(F)F)c3)[C@@H]2C)CC(C)(C)CC1` [Compound 620, 5′-(2-(((4S,5R)-5-(3,5-bis(trifluoromethyl)phenyl)-4-methyl-2-oxooxazolidin-3-yl)methyl)-4,4-dimethylcyclohex-1-enyl)-4′-methoxy-2′-methylbiphenyl-4-carboxylic acid] registered a 50% inhibitory concentration (IC50) of 11.6 nM.

In turn, `COc1cc(C2=C(CN3C(=O)O[C@H](c4cc(C(F)(F)F)cc(C(F)(F)F)c4)[C@@H]3C)CC(C)(C)CC2)cc(-c2ccc(C(=O)O)cc2C)c1` [Compound 689, 3′-(2-(((4S,5R)-5-(3,5-bis(trifluoromethyl)phenyl)-4-methyl-2-oxooxazolidin-3-yl)methyl)-4,4-dimethylcyclohex-1-enyl)-5′-methoxy-2-methylbiphenyl-4-carboxylic acid] returned an IC50 of 24.3 nM.

The molecule `CCNC(=O)c1ccc(-c2ccc(F)c(C3=C(CN4C(=O)O[C@H](c5cc(C(F)(F)F)cc(C(F)(F)F)c5)[C@@H]4C)CC(C)(C)CC3)c2)c(C(F)(F)F)c1` [Compound 756, 3′-(2-(((4S,5R)-5-(3,5-bis(trifluoromethyl)phenyl)-4-methyl-2-oxooxazolidin-3-yl)methyl)-4,4-dimethylcyclohex-1-enyl)-N-ethyl-4′-fluoro-2-(trifluoromethyl)biphenyl-4-carboxamide] registered an IC50 of 5.9 nM.
